# Reference: patent publication US7868020B2, “Quinolynylmethylimidizoles as therapeutic agents” (Allergan, Inc., priority 2007, dated 2011)
# Tests used:
# Alpha 1A = target: T1, Alpha 1A (Homo sapiens, UniProt P35348); assay: RSAT assay, Alpha 1A receptor; assay type: cell-based; conditions: for EC50: RSAT, transfected NIH-3T3 cells; for Alpha 1A (IA) intrinsic activity: ratio of maximal effect of drug to maximal effect of standard full agonist
# T1 construct: expressed in transfected cells; host or cells: NIH-3T3
# T1 sequence (P35348 1-466): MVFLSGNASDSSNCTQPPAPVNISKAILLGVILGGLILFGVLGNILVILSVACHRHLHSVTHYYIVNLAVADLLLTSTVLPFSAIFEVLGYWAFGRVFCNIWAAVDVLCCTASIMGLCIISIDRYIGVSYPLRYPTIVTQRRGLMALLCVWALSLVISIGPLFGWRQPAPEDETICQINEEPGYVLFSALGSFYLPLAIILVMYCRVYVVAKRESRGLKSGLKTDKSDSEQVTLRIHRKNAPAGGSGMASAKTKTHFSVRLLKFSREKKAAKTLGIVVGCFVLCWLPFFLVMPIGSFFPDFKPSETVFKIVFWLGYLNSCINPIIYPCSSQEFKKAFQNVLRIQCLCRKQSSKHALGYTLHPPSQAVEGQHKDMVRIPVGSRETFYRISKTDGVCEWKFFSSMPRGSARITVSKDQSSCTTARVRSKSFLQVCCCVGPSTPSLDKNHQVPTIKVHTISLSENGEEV
# Experimental: (§1) The RSAT assay measures a receptor-mediated loss of contact inhibition that results in selective proliferation of receptor-containing cells in a mixed population of confluent cells. The increase in cell number is assessed with an appropriate transfected marker gene such as […]-galactosidase, the activity of which can be easily measured in a 96-well format. Receptors that activate the G protein, Gq, elicit this response. Alpha2 receptors, which normally couple to Gi, activate the RSAT response when coexpressed with a hybrid Gq protein that has a Gi receptor recognition domain, called Gq/i5.
# (§2) NIH-3T3 cells are plated at a density of 2×10^6 cells in 15 cm dishes and maintained in Dulbecco's modified Eagle's medium supplemented with 10% calf serum. One day later, cells are cotransfected by calcium phosphate precipitation with mammalian expression plasmids encoding p-SV-β-galactosidase (5-10 μg), receptor (1-2 μg) and G protein (1-2 μg). 40 μg salmon sperm DNA may also be included in the transfection mixture. Fresh media is added on the following day and 1-2 days later, cells are harvested and frozen in 50 assay aliquots. Cells are thawed and 100 μl added to 100 μl aliquots of various concentrations of drugs in triplicate in 96-well dishes. Incubations continue 72-96 hr at 37° C. After washing with phosphate-buffered saline, β-galactosidase enzyme activity is determined by adding 200 μl of the chromogenic substrate (consisting of 3.5 mM o-nitrophenyl-β-D-galactopyranoside and 0.5% nonidet P-40 in phosphate buffered saline), incubating overnight at 30° C. and measuring optical density at 420 nm. The absorbance is a measure of enzyme activity, which depends on cell number and reflects a receptor-mediated cell proliferation. The efficacy or intrinsic activity is calculated as a ratio of the maximal effect of the drug to the maximal effect of a standard full agonist for each receptor subtype. Brimonidine, also called UK14304, the chemical structure of which is shown below, is used as the standard agonist for the alpha2A, alpha2B and alpha2C receptors. The EC50 is the concentration at which the drug effect is half of its maximal effect.
# (§3) The results of the RSAT assay with several exemplary compounds of the invention are disclosed in Table 1 above together with the chemical formulas of these exemplary compounds. EC50 values are nanomolar. NA stands for “not active” at concentrations less than 10 micromolar. IA stands for “intrinsic activity.”
# Alpha 2A = target: T2, Alpha 2A (Homo sapiens, UniProt P08913); assay: RSAT assay, Alpha 2A receptor; assay type: cell-based; conditions: transfected NIH-3T3 cells, coexpressed Gq/i5
# T2 construct: expressed in transfected cells; host or cells: NIH-3T3
# T2 sequence (P08913 1-465): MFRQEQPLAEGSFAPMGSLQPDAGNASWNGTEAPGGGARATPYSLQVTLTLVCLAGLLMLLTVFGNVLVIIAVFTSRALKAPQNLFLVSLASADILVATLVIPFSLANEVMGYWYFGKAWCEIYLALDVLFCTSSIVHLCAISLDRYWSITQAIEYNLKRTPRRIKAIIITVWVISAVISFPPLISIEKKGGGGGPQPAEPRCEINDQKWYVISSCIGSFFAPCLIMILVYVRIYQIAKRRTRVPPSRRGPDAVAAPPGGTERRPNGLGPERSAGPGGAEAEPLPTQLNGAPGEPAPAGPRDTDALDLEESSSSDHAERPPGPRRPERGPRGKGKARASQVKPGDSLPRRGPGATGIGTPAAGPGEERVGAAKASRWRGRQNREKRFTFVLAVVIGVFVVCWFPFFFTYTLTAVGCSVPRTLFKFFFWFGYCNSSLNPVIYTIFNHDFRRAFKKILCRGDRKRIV
# Experimental: as §1
# NIH-3T3 cells are plated at a density of 2×10^6 cells in 15 cm dishes and maintained in Dulbecco's modified Eagle's medium supplemented with 10% calf serum. […] After washing with phosphate-buffered saline, β-galactosidase enzyme activity is determined by adding 200 μl of the chromogenic substrate (consisting of 3.5 mM o-nitrophenyl-β-D-galactopyranoside and 0.5% nonidet P-40 in phosphate buffered saline), incubating overnight at 30° C. and measuring optical density at 420 nm. The absorbance is a measure of enzyme activity, which depends on cell number and reflects a receptor-mediated cell proliferation. The efficacy or intrinsic activity is calculated as a ratio of the maximal effect of the drug to the maximal effect of a standard full agonist for each receptor subtype. […]
# Alpha 2B = target: T3, Alpha 2B (Homo sapiens, UniProt P18089); assay: RSAT assay, Alpha 2B receptor; assay type: cell-based; conditions: for EC50: RSAT, transfected NIH-3T3 cells, coexpressed Gq/i5; for Alpha 2B (IA) intrinsic activity: ratio of maximal effect to that of standard full agonist brimonidine
# T3 construct: expressed in transfected cells; host or cells: NIH-3T3
# T3 sequence (P18089 1-450): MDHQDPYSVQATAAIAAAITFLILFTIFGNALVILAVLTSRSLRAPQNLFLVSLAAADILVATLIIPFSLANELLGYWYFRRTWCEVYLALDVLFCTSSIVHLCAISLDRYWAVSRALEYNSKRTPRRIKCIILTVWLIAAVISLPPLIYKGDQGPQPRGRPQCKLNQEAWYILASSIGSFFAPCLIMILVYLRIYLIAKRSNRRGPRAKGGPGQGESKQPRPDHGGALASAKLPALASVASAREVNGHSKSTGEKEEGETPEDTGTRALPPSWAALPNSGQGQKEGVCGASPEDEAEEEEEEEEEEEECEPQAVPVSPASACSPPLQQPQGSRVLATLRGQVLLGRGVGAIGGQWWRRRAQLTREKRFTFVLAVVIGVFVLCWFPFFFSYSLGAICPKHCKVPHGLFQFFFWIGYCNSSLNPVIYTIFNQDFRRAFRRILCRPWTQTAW
# Experimental: as §1, §2, §3
# Alpha 2C = target: T4, Alpha 2C (Homo sapiens, UniProt P18825); assay: RSAT assay, Alpha 2C receptor; assay type: cell-based; conditions: for EC50: RSAT, transfected NIH-3T3 cells, coexpressed Gq/i5; for Alpha 2C (IA) intrinsic activity: ratio of maximal effect to that of standard full agonist brimonidine
# T4 construct: expressed in transfected cells; host or cells: NIH-3T3
# T4 sequence (P18825 1-462): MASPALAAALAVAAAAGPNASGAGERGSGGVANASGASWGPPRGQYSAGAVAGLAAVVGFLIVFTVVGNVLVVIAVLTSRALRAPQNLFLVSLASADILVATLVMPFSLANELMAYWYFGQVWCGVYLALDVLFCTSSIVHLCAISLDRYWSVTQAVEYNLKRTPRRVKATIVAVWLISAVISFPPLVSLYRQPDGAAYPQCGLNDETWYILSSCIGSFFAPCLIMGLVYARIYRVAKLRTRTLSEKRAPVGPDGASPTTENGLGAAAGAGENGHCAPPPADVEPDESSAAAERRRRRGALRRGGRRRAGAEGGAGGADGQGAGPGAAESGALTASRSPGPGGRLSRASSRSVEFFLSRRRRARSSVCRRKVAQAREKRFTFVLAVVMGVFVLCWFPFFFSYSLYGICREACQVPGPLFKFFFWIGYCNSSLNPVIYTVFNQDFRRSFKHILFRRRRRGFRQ
# Experimental: as §1, §2, §3
# [1] = in vitro assay (not specified) of separated enantiomers; conditions: enantiomers separated by chiral HPLC
# Excerpt: Compound (6) was separated by chiral HPLC: […]® OD with 85% hexane and 15% ethanol at rt. The (+)-7-(5-methyl-1H-imidazol-4-ylmethyl)-5,6,7,8-tetrahydro-quinoline (8) corresponding to the second eluting peak was active in an in vitro assay.
SMILES,EC50 (Alpha 1A) [µM],Alpha 1A (IA) intrinsic activity (Alpha 1A),EC50 (Alpha 2A) [µM],EC50 (Alpha 2B) [µM],Alpha 2B (IA) intrinsic activity (Alpha 2B),EC50 (Alpha 2C) [µM],Alpha 2C (IA) intrinsic activity (Alpha 2C),activity in an in vitro assay [1]
Cc1[nH]cnc1CC1CCc2cccnc2C1 (stereo not shown) [drawing 16],0.876,0.66,> 10,0.037,0.7,0.366,0.47,–
"Cc1[nH]cnc1CC1CCc2cccnc2C1 (single isomer, unassigned; (+)) [Compound 8, (+)-7-(5-methyl-1H-imidazol-4-ylmethyl)-5,6,7,8-tetrahydro-quinoline]",–,–,–,–,–,–,–,active
Cc1[nH]cnc1CC1CCc2cccnc2C1 (stereo not shown) [drawing 15],3.34,0.66,> 10,0.057,0.32,0.207,0.63,–
"Cc1[nH]cnc1CC1CCc2cccnc2C1 (single isomer, unassigned; (-)) [Compound 7, (−)-7-(5-methyl-1H-imidazol-4-ylmethyl)-5,6,7,8-tetrahydro-quinoline]",–,–,–,–,–,–,–,inactive
